Data reported in ChEMBL document CHEMBL5038589, “Design, Synthesis, and Structure-Activity Relationship of N-Aryl-N'-(thiophen-2-yl)thiourea Derivatives as Novel and Specific Human TLR1/2 Agonists for Potential Cancer Immunotherapy” (J Med Chem, 2021).
Calls of active or inactive are those of the source. The rule behind the calls is not given here.

target: T1, Toll-like receptor 2 (Homo sapiens, UniProt O60603); experiment: Agonist activity at TLR2 in HEK-Blue cells upto 200 uM incubated for 24 hrs by Quanti-Blue based SEAP assay; format: cell-based; conditions: HEK-Blue hTLR2, dose microM <=200, time 24.0 hrs
T1 sequence (O60603 whole entry): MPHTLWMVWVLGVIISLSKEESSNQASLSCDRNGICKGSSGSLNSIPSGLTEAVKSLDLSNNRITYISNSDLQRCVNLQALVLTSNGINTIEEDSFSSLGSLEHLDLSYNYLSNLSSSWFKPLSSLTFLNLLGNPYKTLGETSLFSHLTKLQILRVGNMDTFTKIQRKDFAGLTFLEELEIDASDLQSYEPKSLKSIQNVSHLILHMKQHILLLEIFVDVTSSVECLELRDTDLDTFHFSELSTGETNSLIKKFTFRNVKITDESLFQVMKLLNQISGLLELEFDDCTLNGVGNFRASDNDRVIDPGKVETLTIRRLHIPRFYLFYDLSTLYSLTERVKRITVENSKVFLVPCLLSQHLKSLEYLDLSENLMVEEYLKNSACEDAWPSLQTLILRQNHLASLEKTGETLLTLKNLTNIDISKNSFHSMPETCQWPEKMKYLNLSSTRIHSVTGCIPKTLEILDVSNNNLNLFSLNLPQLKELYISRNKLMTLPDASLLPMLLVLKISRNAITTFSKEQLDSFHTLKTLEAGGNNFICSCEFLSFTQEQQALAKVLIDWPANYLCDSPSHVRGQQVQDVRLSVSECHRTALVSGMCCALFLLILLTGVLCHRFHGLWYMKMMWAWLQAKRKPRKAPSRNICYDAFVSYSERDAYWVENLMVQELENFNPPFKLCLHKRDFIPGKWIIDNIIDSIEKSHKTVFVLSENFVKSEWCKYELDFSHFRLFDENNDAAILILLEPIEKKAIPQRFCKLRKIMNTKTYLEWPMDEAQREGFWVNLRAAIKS

Which Activity does the source give for `COC(=O)c1c(NC(=S)NCCc2ccccc2)sc2c1CCCC2` here?
The Activity was “inactive”.

Which Activity does the source give for `CCOC(=O)c1c(NC(=O)Nc2ccc(Cl)cc2)sc2c1CCC2` here?
Its Activity is “inactive”.

`COC(=O)c1c(NC(=O)Nc2ccc(Cl)cc2)sc2c1CCC2` was tested. Which Activity did it give?
The Activity was “inactive”.

With `COC(=O)c1c(NC(=S)NCCCSC)sc2c1CCCC2` as the compound, how does the Activity read?
The Activity was “inactive”.

Which Activity does the source give for `CC(C)(C)OC(=O)c1c(NC(=S)Nc2cccc3ccccc23)sc2c1CCCC2` here?
Its Activity is “inactive”.

With `CC(C)(C)OC(=O)c1c(NC(=S)Nc2cccc3ccccc23)sc2c1CCC2` as the compound, how does the Activity read?
The Activity was “inactive”.

For `O=C(O)c1c(NC(=S)Nc2cccc3ccccc23)sc2c1CCC2`, which Activity is on record?
The Activity was “inactive”.

`CCOC(=O)c1c(NC(=O)Nc2ccc(Cl)c(Cl)c2)sc2c1CCC2` was tested. Which Activity did it give?
The Activity was “inactive”.

`CC(C)OC(=O)c1c(NC(=S)Nc2cccc3ccccc23)sc2c1CCN(C)C2` was tested. Which Activity did it give?
The Activity was “inactive”.

With `CCOC(=O)c1c(NC(=O)Nc2ccc(Cl)c(Cl)c2)sc2c1CCCC2` as the compound, how does the Activity read?
The Activity was “inactive”.

For `O=C(O)c1c(NC(=S)Nc2cccc3ccccc23)sc2c1CCCC2`, which Activity is on record?
The Activity was “inactive”.

For `COC(=O)c1c(NC(=O)Nc2ccc(C)cc2)sc2c1CCC2`, which Activity is on record?
The Activity was “inactive”.

`CCOC(=O)c1ccsc1NC(=S)Nc1cccc2ccccc12` was tested. Which Activity did it give?
Its Activity is “inactive”.

How did the Activity turn out when `CCOC(=O)c1c(NC(=S)Nc2cccc3ccccc23)sc2c1CCN(C)C2` was run?
Its Activity is “inactive”.

For `CCOC(=O)c1c(NC(=O)Nc2cccc(Cl)c2)sc2c1CCC2`, which Activity is on record?
Its Activity is “inactive”.

`CC(C)OC(=O)c1ccsc1NC(=S)Nc1cccc2ccccc12` was tested. Which Activity did it give?
Its Activity is “inactive”.

For `CCOC(=O)c1c(NC(=S)NCCCSC)sc2c1CCCC2`, which Activity is on record?
The Activity was “inactive”.

How did the Activity turn out when `O=C(OCCc1ccccc1)c1c(NC(=S)Nc2cccc3ccccc23)sc2c1CCC2` was run?
The Activity was “inactive”.

Which Activity does the source give for `CCOC(=O)c1c(-c2ccccc2)csc1NC(=S)Nc1cccc2ccccc12` here?
Its Activity is “inactive”.

Which Activity does the source give for `CC(C)OC(=O)c1c(-c2ccccc2)csc1NC(=S)Nc1cccc2ccccc12` here?
The Activity was “inactive”.

Which Activity does the source give for `COC(=O)c1c(NC(=O)Nc2ccc(Cl)cc2)sc2c1CCCC2` here?
Its Activity is “inactive”.

Which Activity does the source give for `CCOC(=O)c1c(NC(=O)Nc2ccc(Cl)cc2)sc2c1CCCC2` here?
Its Activity is “inactive”.

`CCCCOC(=O)c1c(NC(=S)Nc2cccc3ccccc23)sc2c1CCCC2` was tested. Which Activity did it give?
The Activity was “inactive”.

target: T1, Toll-like receptor 2; experiment: Agonist activity at TLR2 in HEK-Blue cells incubated for 24 hrs by Quanti-Blue based SEAP assay; format: cell-based, HEK-Blue hTLR2; conditions: not given

For `COC(=O)c1c(NC(=S)Nc2ccc(C(F)(F)F)cc2)sc2c1CCCC2`, which EC50 is on record?
Its EC50 is 33.9 µM.

How did the EC50 turn out when `CC(C)COC(=O)c1c(NC(=S)Nc2cccc3ccccc23)sc2c1CCC2` was run?
Its EC50 is 28.2 µM.

How did the EC50 turn out when `CCOC(=O)c1c(N=C(S)Nc2ccccc2)sc2c1CCCCC2` was run?
Its EC50 is 28.5 µM.

`COC(=O)c1c(NC(=S)Nc2ccc(C)cc2)sc2c1CCCC2` was tested. Which EC50 did it give?
Its EC50 is 10.3 µM.

Which EC50 does the source give for `COC(=O)c1c(NC(=S)Nc2cccc3ccccc23)sc2c1CCCC2` here?
The EC50 was 7.33 µM.

For `CCOC(=O)c1c(NC(=S)Nc2ccc(F)cc2)sc2c1CCCC2`, which EC50 is on record?
The EC50 was 12.1 µM.

With `CCOC(=O)c1c(NC(=S)Nc2cccc3ccccc23)sc2c1CCC(C)C2` (configuration not stated) as the compound, how does the EC50 read?
The EC50 was 1.73 µM.

For `CCOC(=O)c1c(NC(=S)Nc2ccc(C)cc2)sc2c1CCCC2`, which EC50 is on record?
The EC50 was 8.77 µM.

With `CCOC(=O)c1c(NC(=S)Nc2ccc(C(F)(F)F)cc2)sc2c1CCCC2` as the compound, how does the EC50 read?
Its EC50 is 11.9 µM.

How did the EC50 turn out when `CCOC(=O)c1c(NC(=S)Nc2cccc3ccccc23)sc2c1CCCCC2` was run?
Its EC50 is 2.35 µM.

Which EC50 does the source give for `CC(C)COC(=O)c1c(NC(=S)Nc2cccc3ccccc23)sc2c1CCCC2` here?
Its EC50 is 30.4 µM.

`COC(=O)c1c(NC(=S)Nc2cccc3ccccc23)sc2c1CCC2` was tested. Which EC50 did it give?
The EC50 was 3.57 µM.

How did the EC50 turn out when `CCOC(=O)c1c(NC(=O)Nc2ccccc2)sc2c1CCC2` was run?
Its EC50 is 11.9 µM.

Which EC50 does the source give for `CCOC(=O)c1c(NC(=O)Nc2cccc3ccccc23)sc2c1CCC2` here?
The EC50 was 7.6 µM.

For `CC(C)OC(=O)c1c(NC(=S)Nc2ccc(F)c3ccccc23)sc2c1CCCC2`, which EC50 is on record?
Its EC50 is 0.035 µM.

With `CCOC(=O)c1c(N=C(S)Nc2ccc(F)cc2)sc2c1CCC2` as the compound, how does the EC50 read?
The EC50 was 13.3 µM.

For `CCOC(=O)c1c(NC(=S)Nc2ccc(-c3ccccc3)cc2)sc2c1CCC2`, which EC50 is on record?
The EC50 was 7.13 µM.

For `CCCOC(=O)c1c(NC(=S)Nc2cccc3ccccc23)sc2c1CCC2`, which EC50 is on record?
Its EC50 is 0.82 µM.

With `CCOC(=O)c1c(NC(=S)Nc2ccccc2)sc2c1CCC2` as the compound, how does the EC50 read?
The EC50 was 5.9 µM.

Which EC50 does the source give for `CC(C)OC(=O)c1c(NC(=S)Nc2ccc(Br)c3ccccc23)sc2c1CCC2` here?
The EC50 was 0.039 µM.

Which EC50 does the source give for `CC(C)OC(=O)c1c(NC(=S)Nc2cccc3ccccc23)sc2c1CCCC2` here?
The EC50 was 0.14 µM.

For `CCOC(=O)c1c(NC(=O)Nc2ccc(C)cc2)sc2c1CCC2`, which EC50 is on record?
Its EC50 is 12.1 µM.

With `CCOC(=O)c1c(NC(=S)Nc2ccc(Cl)cc2)sc2c1CCC2` as the compound, how does the EC50 read?
The EC50 was 2.5 µM.

How did the EC50 turn out when `CCOC(=O)c1c(NC(=O)Nc2ccccc2)sc2c1CCCCC2` was run?
The EC50 was 11.7 µM.

Which EC50 does the source give for `COC(=O)c1c(NC(=S)Nc2ccccc2)sc2c1CCCC2` here?
The EC50 was 14.7 µM.

How did the EC50 turn out when `CCOC(=O)c1c(NC(=O)Nc2ccc(C)cc2)sc2c1CCCC2` was run?
Its EC50 is 14.6 µM.

For `COC(=O)c1c(NC(=S)Nc2ccccc2)sc2c1CCC2`, which EC50 is on record?
Its EC50 is 14.1 µM.

How did the EC50 turn out when `CCOC(=O)c1c(NC(=O)Nc2cccc3ccccc23)sc2c1CCCC2` was run?
The EC50 was 5.84 µM.

target: T1, Toll-like receptor 2; experiment: Binding affinity to recombinant human TLR2 expressed in H5 cells by surface plasmon resonance method; conditions: not given

For `CCOC(=O)c1c(NC(=O)Nc2ccccc2)sc2c1CCCCC2`, which Kd is on record?
Its Kd is 9 µM.
